Test results: patent EP3189848B1, “A COMPOSITION COMPRISING TRIPEPTIDES FOR THE TREATMENT OF DISEASES OF THE JOINTS AND THE SPINE” (Zamerton Holdings Limited, priority 2014, dated 2016)

What was measured:
Type in all cases: in vivo
[1] = system: articular cartilages of rats with experimental arthritis; experiment: Electron microscopic study of the ultrastructure of the articular cartilages; settings: 50 mg/kg
Procedure: The study of the ultrastructure of the articular cartilages of the rats was performed using conventional electron microscopy techniques.

[2] = system: rats with experimental arthritis; experiment: Primary connective tissue metabolites in blood serum, rat model of systemic steroid (dexamethasone) arthritis; settings: Day 56, daily i.m. 4 weeks, 50 mg/kg
Excerpt: Example 2. A study of the chondroprotective activity of a composition comprising peptides Lys-Asp-Glu, Ala-Asp-Glu, Asp-Glu-Gly, and an agent comprising peptides Lys-Asp-Glu, Ala-Asp-Glu, Asp-Glu-Gly and chondroitin sulfate and/or glucosamine sulfate using a rat-based model of systemic steroid arthritis.
Lyophilized powder consisting of peptides Lys-Asp-Glu, Ala-Asp-Glu, Asp-Glu-Gly was used to obtain the preparation for intramuscular injections.
The daily dose of the composition comprising peptides Lys-Asp-Glu, Ala-Asp-Glu, Asp-Glu-Gly was 50 µg/kg (at a weight ratio of the peptides of 1:1:1), 150 µg/kg (at a weight ratio of the peptides of 1:2:1), 300 µg/kg (at a weight ratio of the peptides of 0.1:1:10) or 600 µg/kg (at a weight ratio of the peptides of 1:1:3).
The daily dose of the composition comprising peptides Lys-Asp-Glu, Ala-Asp-Glu, Asp-Glu-Gly and glucosamine sulfate or chondroitin sulfate was 150 µg/kg of the peptides (at a weight ratio of the peptides of 1:2:1) and 50 mg/kg of glucosamine sulfate or chondroitin sulfate, or 300 µg/kg of the peptides (at a weight ratio of the peptides of 0.1:1:10) and 50 mg/kg of glucosamine sulfate or chondroitin sulfate, or 600 µg/kg of the peptides (at a weight ratio of the peptides of 1:1:3) and 50 mg/kg of glucosamine sulfate or chondroitin sulfate. […]
The study was conducted using white outbred male rats 4-5 months of age weighing 250-300 g obtained from the same litter (same age and weight, with normal primary clinical and biochemical analyses parameters). […] The first signs of the arthropathy were detected as early as week 2 of the experiment.
Starting from day 28 of the experiment, all animals received corresponding intramuscular doses of the preparations on a daily basis over 4 weeks. The degree of activity of the pathological process was evaluated using biochemical blood test parameters. […]
Clinical observation of the animals was implemented throughout the study; the functional state of the rat joints was monitored (degree of mobility, resistance to stress, swelling, hyperaemia). […]

[3] = system: articular cartilages of the knee joints of the rats; experiment: Histomorphological and morphometric study of the articular cartilages of the knee joints (light microscopy, scoring system)
Procedure: The study was conducted using white outbred male rats 4-5 months of age weighing 250-300 g obtained from the same litter (same age and weight, with normal primary clinical and biochemical analyses parameters). Modeling of steroid arthritis was achieved by three single intramuscular injections of dexamethasone administered at an interval of 1 week at a dose of 7 mg/kg. The first signs of the arthropathy were detected as early as week 2 of the experiment.
Starting from day 28 of the experiment, all animals received corresponding intramuscular doses of the preparations on a daily basis over 4 weeks. The degree of activity of the pathological process was evaluated using biochemical blood test parameters. The following biochemical parameters were used as the parameters for evaluation of the intensity of progression of the pathological process in the experimental groups: the contents of sialic acids, glycoproteins, and chondroitin sulfates in the serum, as these parameters reflect the intensity of progression of the degenerative-dystrophic processes in the connective tissue.
Clinical observation of the animals was implemented throughout the study; the functional state of the rat joints was monitored (degree of mobility, resistance to stress, swelling, hyperaemia). The animals were decapitated under ether anesthesia at the end of the study (on day 56) to harvest biomaterials for biochemical and histomorphological studies.
In order to investigate the chondroprotective activity of the composition, a study of the condition of the morpho- and ultrastructure of the articular cartilages of the knee joints of the rats was carried out on day 56 of the experiment.
The histomorphological investigation of the articular cartilages was carried out using standard light microscopy techniques.
The morphometric measurements were carried out using an ocular micrometer: the cartilage thickness was determined using slide mounts; the measurements were taken at 3 individual points - the central part of the head, and the upper and lower edges. The thickness of the articular cartilages was expressed in conventional units. The density of chondrocytes per conventional unit area was also estimated. Statistical processing of the digital data obtained was performed using Student's t-test and non-parametric methods of analysis (Mann-Whitney U Test). […]

[4] = system: patients with degenerative-dystrophic diseases of the joints; experiment: Clinical administration to patients with joint disease (first group); settings: 500 mg, tablets twice a day three weeks then once daily
Procedure: (§1) Example 3. Administration of the peptide composition and the peptide composition in combination with glucosamine sulfate and/or chondroitin sulfate to patients with degenerative-dystrophic diseases of the joints and the spine.
(§2) The studies were carried out in a group patients aged 40 - 65 years.
The first group (50 patients) was characterized by stiffness in the joints, as well as puffiness or swelling in the joints, which was manifested in the appearance of pain of varying intensity and duration.
A total of 15 patients in the first group were exposed to the peptide composition administered at a dose of 150 µg; 7 patients received glucosamine sulfate at a dose of 500 mg; 10 patients were treated with the composition of the peptides administered at a dose of 150 µg, glucosamine sulfate at a dose of 500 mg, and chondroitin sulfate at a dose of 50 mg; and 18 patients received the composition of the peptides administered at a dose of 150 µg and glucosamine sulfate at a dose of 500 mg in the form of tablets twice a day over the first three weeks and then once daily for up to 6 months. A sustained therapeutic effect associated with administration of glucosamine sulfate was achieved after at least 6 months of therapy. […]

[5] = system: patients with degenerative process occurring in the intervertebral joints and intervertebral discs; experiment: Clinical administration to patients with degenerative process of the spine (second group); settings: 50 mg intramuscularly daily, 30 injections
Procedure: as §1, §2
The second group (30 patients) was characterized by the degenerative process occurring in the intervertebral joints and intervertebral discs accompanied by deformation of the intervertebral discs and formation of osteophytes, which was manifested in the appearance of pain of varying intensity and duration.
A total of 10 patients in the second group received the peptide composition at a dose of 300 µg; 9 patients received glucosamine sulfate at a dose of 50 mg; and 11 patients received the composition of the peptides at a dose of 300 µg and glucosamine sulfate at a dose of 50 mg administered intramuscularly on a daily basis. The treatment course comprised 30 injections. A therapeutic effect associated with administration of glucosamine sulfate was achieved after at least 1 month of therapy. […]

Compound: N[C@H]1C(O)O[C@H](CO)[C@@H](O)[C@@H]1O.O=S(=O)(O)O (stereo partly shown) [Glucosamine sulfate]
- ultrastructure of the cartilages [1]: normalization of the ultrastructure of the cartilages accompanied by moderate degenerative-dystrophic manifestations in chondrocytes
- Chondroitin sulfate [2]: 0.400 ± 0.027 g/L
- Glycoproteins [2]: 3.59 ± 0.29 g/L
- Sialic acids [2]: 4.27 ± 0.34 mmol/L
- morphology of the joints (slide mounts) ([3]; 50 mg/kg): improvement of the morphology in comparison to the control pathology animal group
- Cartilage thickness ([3]; day 56, 50 mg/kg): 14.10±1.06 conventional units
- Cell density per conventional unit area ([3]; day 56, 50 mg/kg): 23.79±1.80
- Total score according to the cartilage condition evaluation system ([3]; day 56, 50 mg/kg): 16.2±1.3
- therapy duration until sustained therapeutic effect [4]: at least 6 months
- therapy duration until therapeutic effect [5]: at least 1 month
